The values that follow come from patent US20150005281A1, “PYRIMIDINE-2,4-DIAMINE DERIVATIVES AS KINASE INHIBITORS” (Cellzome Limited, priority 2011, published 2015).

Holding throughout (format): binding
Test [1] concerns the target T1, JAK3 (Homo sapiens, UniProt P52333).
T1 construct: endogenous in cells; host or cells: Molt4 (ATCC CRL-1582) and Ramos (ATCC CRL-1596) cells; mixed lysate 1:2
T1 sequence (P52333 1-1124): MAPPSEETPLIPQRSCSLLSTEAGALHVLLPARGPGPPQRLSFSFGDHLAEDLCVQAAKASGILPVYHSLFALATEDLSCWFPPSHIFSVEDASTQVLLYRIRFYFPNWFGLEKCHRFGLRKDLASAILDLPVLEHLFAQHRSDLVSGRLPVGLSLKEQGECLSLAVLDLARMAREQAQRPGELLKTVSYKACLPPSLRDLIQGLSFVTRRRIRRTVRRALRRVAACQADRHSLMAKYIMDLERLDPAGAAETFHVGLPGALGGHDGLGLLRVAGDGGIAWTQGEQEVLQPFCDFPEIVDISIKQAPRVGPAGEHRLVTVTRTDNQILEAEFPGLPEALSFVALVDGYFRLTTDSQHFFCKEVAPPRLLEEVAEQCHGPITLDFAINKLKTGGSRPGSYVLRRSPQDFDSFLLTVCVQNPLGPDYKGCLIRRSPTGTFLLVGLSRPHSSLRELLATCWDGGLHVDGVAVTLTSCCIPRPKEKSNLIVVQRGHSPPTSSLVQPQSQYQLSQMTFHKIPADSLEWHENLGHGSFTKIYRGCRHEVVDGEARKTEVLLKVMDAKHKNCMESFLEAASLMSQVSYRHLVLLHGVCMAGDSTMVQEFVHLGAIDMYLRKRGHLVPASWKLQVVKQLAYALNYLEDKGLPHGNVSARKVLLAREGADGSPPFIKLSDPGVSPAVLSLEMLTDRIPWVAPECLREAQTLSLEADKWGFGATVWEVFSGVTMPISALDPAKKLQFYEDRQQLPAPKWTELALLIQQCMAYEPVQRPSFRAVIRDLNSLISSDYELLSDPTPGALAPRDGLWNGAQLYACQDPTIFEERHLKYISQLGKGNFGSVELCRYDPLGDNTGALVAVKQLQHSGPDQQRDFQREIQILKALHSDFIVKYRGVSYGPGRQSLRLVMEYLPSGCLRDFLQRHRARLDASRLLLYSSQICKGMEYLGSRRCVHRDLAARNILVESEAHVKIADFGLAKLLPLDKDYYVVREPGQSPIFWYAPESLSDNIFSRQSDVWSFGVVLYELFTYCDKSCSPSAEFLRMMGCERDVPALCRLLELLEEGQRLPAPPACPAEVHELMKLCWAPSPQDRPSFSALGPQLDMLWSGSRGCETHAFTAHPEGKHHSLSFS
Put plainly: Kinobeads assay with immunodetection, JAK3. As to conditions: for IC50: Kinobeads assay, mixed Molt4/Ramos lysate, read-out: Inhibition values (IC50) JAK3. The method, boiled down: (§1)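 Lysates of Molt4 and Ramos cells, combined 1:2 and diluted to 10 mg/mL in Tris pH 7.4 buffer with 0.8% NP40, are incubated for 3 h in the cold with compound and the affinity matrix. Beads are washed, eluted in SDS buffer, and kinases are quantified by infrared immunodetection to give IC50s.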

Test [2] deals with T2, JAK1 (Homo sapiens, UniProt P23458).
T2 construct: endogenous in cells; host or cells: Molt4 (ATCC CRL-1582) and Ramos (ATCC CRL-1596) cells; mixed lysate 1:2
T2 sequence (P23458 whole entry): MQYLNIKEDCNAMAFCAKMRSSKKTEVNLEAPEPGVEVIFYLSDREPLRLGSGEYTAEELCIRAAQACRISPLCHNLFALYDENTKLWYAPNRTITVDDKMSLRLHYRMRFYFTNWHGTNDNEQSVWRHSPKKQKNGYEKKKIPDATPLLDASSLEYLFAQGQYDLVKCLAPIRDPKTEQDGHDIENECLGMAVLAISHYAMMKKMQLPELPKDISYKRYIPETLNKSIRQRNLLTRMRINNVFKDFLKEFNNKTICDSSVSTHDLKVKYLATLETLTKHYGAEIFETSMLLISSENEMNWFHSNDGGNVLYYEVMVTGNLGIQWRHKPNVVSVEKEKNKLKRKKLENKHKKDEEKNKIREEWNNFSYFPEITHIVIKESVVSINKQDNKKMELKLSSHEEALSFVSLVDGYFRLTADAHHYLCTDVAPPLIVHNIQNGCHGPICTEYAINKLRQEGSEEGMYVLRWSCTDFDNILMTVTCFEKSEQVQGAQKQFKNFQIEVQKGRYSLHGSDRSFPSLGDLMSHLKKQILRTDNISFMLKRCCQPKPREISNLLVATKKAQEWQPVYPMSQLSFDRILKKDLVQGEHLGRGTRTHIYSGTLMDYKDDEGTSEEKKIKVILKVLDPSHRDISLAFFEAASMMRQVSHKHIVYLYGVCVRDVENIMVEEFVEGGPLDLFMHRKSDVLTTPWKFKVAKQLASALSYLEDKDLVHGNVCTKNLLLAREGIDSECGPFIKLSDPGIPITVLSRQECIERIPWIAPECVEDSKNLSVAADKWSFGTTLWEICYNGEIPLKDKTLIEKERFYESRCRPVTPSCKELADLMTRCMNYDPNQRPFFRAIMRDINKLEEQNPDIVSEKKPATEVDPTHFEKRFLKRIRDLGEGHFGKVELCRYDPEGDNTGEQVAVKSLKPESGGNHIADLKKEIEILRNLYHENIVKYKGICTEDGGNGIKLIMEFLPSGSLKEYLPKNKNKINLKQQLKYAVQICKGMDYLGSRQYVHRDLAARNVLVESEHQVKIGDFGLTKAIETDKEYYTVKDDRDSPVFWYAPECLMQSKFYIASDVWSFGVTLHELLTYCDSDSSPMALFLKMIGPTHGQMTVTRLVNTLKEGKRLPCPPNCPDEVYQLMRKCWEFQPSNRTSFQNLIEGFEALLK
In words: Kinobeads assay with immunodetection, JAK1. The following applies: for IC50: Kinobeads assay, mixed Molt4/Ramos lysate, read-out: Inhibition values (IC50) JAK1. The essentials:
as §1

Test [3] concerns the target T3, JAK2 (Homo sapiens, UniProt O60674).
T3 construct: endogenous in cells; host or cells: Molt4 (ATCC CRL-1582) and Ramos (ATCC CRL-1596) cells; mixed lysate 1:2
In words: Kinobeads assay with immunodetection, JAK2. The following applies: mixed Molt4/Ramos lysate, read-out: Inhibition values (IC50) JAK2. The method, boiled down:
as §1

The target in test [4] is T4, TYK2 (Homo sapiens, UniProt P29597).
T4 construct: endogenous in cells; host or cells: Molt4 (ATCC CRL-1582) and Ramos (ATCC CRL-1596) cells; mixed lysate 1:2
T4 sequence (P29597 whole entry): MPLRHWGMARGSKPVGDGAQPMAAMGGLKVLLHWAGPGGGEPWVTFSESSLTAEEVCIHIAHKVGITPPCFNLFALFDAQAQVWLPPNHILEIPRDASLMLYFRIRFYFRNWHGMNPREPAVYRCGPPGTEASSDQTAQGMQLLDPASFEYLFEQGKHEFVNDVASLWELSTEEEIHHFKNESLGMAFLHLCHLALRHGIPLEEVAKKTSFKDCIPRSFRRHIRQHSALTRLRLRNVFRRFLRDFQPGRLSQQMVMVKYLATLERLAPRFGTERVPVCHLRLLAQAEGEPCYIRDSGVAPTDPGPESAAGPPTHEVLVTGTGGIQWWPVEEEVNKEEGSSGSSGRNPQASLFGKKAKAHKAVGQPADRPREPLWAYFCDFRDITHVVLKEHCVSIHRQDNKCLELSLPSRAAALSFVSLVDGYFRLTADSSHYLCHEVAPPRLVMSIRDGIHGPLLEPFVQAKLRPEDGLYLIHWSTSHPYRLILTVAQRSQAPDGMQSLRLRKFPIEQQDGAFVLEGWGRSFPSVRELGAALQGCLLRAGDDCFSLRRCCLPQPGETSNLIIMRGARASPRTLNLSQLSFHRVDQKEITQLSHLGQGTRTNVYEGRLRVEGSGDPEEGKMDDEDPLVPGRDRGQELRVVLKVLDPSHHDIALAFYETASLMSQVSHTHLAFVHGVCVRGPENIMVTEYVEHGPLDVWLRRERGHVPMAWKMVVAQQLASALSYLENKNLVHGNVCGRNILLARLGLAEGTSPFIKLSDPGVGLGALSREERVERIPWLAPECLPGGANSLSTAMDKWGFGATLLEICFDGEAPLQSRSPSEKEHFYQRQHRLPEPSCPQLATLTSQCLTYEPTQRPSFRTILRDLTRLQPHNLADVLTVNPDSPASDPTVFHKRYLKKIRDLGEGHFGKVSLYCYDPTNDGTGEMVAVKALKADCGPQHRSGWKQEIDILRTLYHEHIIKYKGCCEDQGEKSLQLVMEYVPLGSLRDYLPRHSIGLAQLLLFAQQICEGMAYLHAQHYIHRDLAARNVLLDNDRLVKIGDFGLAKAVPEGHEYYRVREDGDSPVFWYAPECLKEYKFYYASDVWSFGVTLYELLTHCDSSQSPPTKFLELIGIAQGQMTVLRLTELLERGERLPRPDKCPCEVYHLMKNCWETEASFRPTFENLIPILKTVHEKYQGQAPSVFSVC
In words: Kinobeads assay with immunodetection, TYK2. The following applies: for IC50: Kinobeads assay, mixed Molt4/Ramos lysate, read-out: Inhibition values (IC50) Tyk2. The method, boiled down:
as §1

As a reminder, the IC50 is the concentration that inhibits the measured activity by half.

Molecules are shown by their SMILES.

T3 sequence (O60674 whole entry): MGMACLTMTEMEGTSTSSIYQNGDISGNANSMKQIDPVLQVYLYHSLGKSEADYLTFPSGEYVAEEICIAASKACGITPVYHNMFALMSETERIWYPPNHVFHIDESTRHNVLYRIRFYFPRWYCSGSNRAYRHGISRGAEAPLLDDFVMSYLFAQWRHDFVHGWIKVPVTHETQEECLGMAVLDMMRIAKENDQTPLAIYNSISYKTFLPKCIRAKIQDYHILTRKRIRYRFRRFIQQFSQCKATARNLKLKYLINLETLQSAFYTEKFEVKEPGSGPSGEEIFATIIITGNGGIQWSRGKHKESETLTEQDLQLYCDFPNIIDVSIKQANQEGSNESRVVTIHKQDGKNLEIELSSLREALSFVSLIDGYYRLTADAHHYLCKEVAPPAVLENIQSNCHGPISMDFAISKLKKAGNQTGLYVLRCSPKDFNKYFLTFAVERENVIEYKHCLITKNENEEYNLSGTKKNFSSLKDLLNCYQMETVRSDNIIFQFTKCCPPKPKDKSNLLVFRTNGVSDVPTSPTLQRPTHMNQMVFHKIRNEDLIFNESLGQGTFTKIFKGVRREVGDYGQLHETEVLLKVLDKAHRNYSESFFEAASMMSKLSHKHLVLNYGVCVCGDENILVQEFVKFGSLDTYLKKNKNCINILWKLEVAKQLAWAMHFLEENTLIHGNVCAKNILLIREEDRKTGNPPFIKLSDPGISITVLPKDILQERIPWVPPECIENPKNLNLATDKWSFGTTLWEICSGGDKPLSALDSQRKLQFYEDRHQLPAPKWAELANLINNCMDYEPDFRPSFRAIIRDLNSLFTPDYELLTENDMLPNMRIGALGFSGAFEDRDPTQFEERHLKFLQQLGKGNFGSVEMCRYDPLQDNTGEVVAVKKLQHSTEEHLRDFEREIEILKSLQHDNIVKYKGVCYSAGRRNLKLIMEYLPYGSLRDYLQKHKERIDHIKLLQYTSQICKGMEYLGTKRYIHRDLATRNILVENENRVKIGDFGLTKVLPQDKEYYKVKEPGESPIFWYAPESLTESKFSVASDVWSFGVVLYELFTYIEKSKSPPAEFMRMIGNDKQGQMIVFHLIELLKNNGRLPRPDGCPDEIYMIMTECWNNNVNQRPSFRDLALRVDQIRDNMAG

For `Cn1cc(Nc2ncc(Cl)c(NC[C@@H]3CCCN3S(C)(=O)=O)n2)cn1` [Example 12, (S)-5-chloro-N^2-(1-methyl-1H-pyrazol-4-yl)-N^4-((1-(methylsulfonyl)pyrrolidin-2-yl)methyl)pyrimidine-2,4-diamine], the concentration for half-maximal inhibition (IC50) in test [1] is less than 100 nM; in test [2], less than 100 nM; in test [3] it was 100 to 1000 nM; in test [4], less than 100 nM. In test [2], the “Selectivity ratio over JAK2, JAK1” value is reported as “JAK1 = 12”.

In the case of `CC(=O)N1CC[C@H](CNc2nc(Nc3cnn(CCO)c3)ncc2Cl)C1` [Example 21, (R)-1-(3-(((5-chloro-2-((1-(2-hydroxyethyl)-1H-pyrazol-4-yl)amino)pyrimidin-4-yl)amino)methyl)pyrrolidin-1-yl)ethanone], the concentration for half-maximal inhibition (IC50) in test [1] is 100 to 1000 nM; in test [2], less than 100 nM; in test [3], 1000 to 10000 nM; in test [4], less than 100 nM. Moreover, the “Selectivity ratio over JAK2, JAK1” value in test [2] was “JAK1 = 78”.

`CC(=O)N1CC(CNc2nc(Nc3cnn(C)c3)ncc2Cl)C1` [Example 16, 1-(3-(((5-chloro-2-((1-methyl-1H-pyrazol-4-yl)amino)pyrimidin-4-yl)amino)methyl)azetidin-1-yl)ethanone]: the IC50 in test [1], in test [2], in test [3] and in test [4] was more than 10000 nM in each case.

In the case of `Cn1cc(Nc2ncc(Cl)c(NC[C@H]3CCCN3CCNS(C)(=O)=O)n2)cn1` [Example 126, (R)—N-(2-(2-(((5-chloro-2-((1-methyl-1H-pyrazol-4-yl)amino)pyrimidin-4-yl)amino)methyl)pyrrolidin-1-yl)ethyl)methanesulfonamide], the “Selectivity ratio over JAK2, JAK3” value in test [1] is on record as “JAK3 = 46”. Besides, the IC50 in test [1] is 100 to 1000 nM; in test [2], less than 100 nM; in test [3], 100 to 1000 nM; in test [4], less than 100 nM.

As for `CC(C)NC(=O)Cn1cc(Nc2nccc(NC[C@H]3CCCN3C(=O)CC#N)n2)cn1` [Example 96, (R)-2-(4-((4-(((1-(2-cyanoacetyl)pyrrolidin-2-yl)methyl)amino)pyrimidin-2-yl)amino)-1H-pyrazol-1-yl)-N-isopropylacetamide], the IC50 in test [1] was 1000 to 10000 nM; in test [2], 100 to 1000 nM; in test [3], more than 10000 nM; in test [4] it was less than 100 nM. The “Selectivity ratio over JAK2, Tyk2” value in test [4] is “Tyk2 = 555”.

For `C=CC(=O)N1CC[C@H](CNc2nc(Nc3cnn(C)c3)ncc2Cl)C1` [Example 22, (R)-1-(3-(((5-chloro-2-((1-methyl-1H-pyrazol-4-yl)amino)pyrimidin-4-yl)amino)methyl)pyrrolidin-1-yl)prop-2-en-1-one], the “Selectivity ratio over JAK2, JAK3” value in test [1] was “JAK3 = 610”. Moreover, the half-inhibitory concentration (IC50) in test [1] is less than 100 nM; in test [2], 100 to 1000 nM; in test [3] it was 1000 to 10000 nM; in test [4] it was 100 to 1000 nM.

Regarding `CS(=O)(=O)N1CCCC[C@@H]1CNc1nc(Nc2cnn(CCO)c2)ncc1Cl` [Example 44, (R)-2-(4-((5-chloro-4-(((1-(methylsulfonyl)piperidin-2-yl)methyl)amino)pyrimidin-2-yl)amino)-1H-pyrazol-1-yl)ethanol], in test [1], the “Selectivity ratio over JAK2, JAK3” value is “JAK3 = 20”. In addition, the half-inhibitory concentration (IC50) is less than 100 nM in test [1], 100 to 1000 nM in test [2], 100 to 1000 nM in test [3] and 100 to 1000 nM in test [4].

Turning to `CS(=O)(=O)N1CC[C@H](CNc2nc(Nc3cnn(CCO)c3)ncc2Cl)C1` [Example 85, (R)-2-(4-((5-chloro-4-(((1-(methylsulfonyl)pyrrolidin-3-yl)methyl)amino)pyrimidin-2-yl)amino)-1H-pyrazol-1-yl)ethanol], the IC50 is 100 to 1000 nM in test [1], less than 100 nM in test [2], 100 to 1000 nM in test [3] and less than 100 nM in test [4]. In test [2], the “Selectivity ratio over JAK2, JAK1” value is “JAK1 = 27”.

For `C=CS(=O)(=O)N1CCCC[C@@H]1CNc1nc(Nc2cnn(C)c2)ncc1Cl` [Example 45, (R)-5-chloro-N^2-(1-methyl-1H-pyrazol-4-yl)-N^4-((1-(vinylsulfonyl)piperidin-2-yl)methyl)pyrimidine-2,4-diamine], the “Selectivity ratio over JAK2, JAK3” value in test [1] was “JAK3 = 160”. Besides, the IC50 is less than 100 nM in test [1], 100 to 1000 nM in test [2], 1000 to 10000 nM in test [3] and 100 to 1000 nM in test [4].

Turning to `Cn1cc(Nc2ncc(Cl)c(NC[C@H]3CCCN3S(C)(=O)=O)n2)cn1` [Example 5, (R)-5-chloro-N^2-(1-methyl-1H-pyrazol-4-yl)-N^4-((1-(methylsulfonyl)pyrrolidin-2-yl)methyl)pyrimidine-2,4-diamine], the IC50 in test [1] is less than 100 nM; in test [2] it was less than 100 nM; in test [3] it was 100 to 1000 nM; in test [4], less than 100 nM. Also, the “Selectivity ratio over JAK2, JAK1” value in test [2] is “JAK1 = 13”.

On to `Cc1cnc(Nc2cnn(CC(F)F)c2)nc1NC[C@@H]1CCCN1C(=O)CC#N` [Example 124, (S)-3-(2-(((2-((1-(2,2-difluoroethyl)-1H-pyrazol-4-yl)amino)-5-methylpyrimidin-4-yl)amino)methyl)pyrrolidin-1-yl)-3-oxopropanenitrile], for which the half-maximal inhibitory concentration (IC50) in test [1] was 100 to 1000 nM; in test [2], less than 100 nM; in test [3] it was 1000 to 10000 nM; in test [4], less than 100 nM. Further, the “Selectivity ratio over JAK2, JAK1” value in test [2] is recorded as “JAK1 = 101”.

On to `CNC(=O)Cn1cc(Nc2ncc(Cl)c(NC[C@@H]3CCCN3)n2)cn1` [Example 65, (S)-2-(4-(5-chloro-4-(pyrrolidin-2-ylmethylamino)pyrimidin-2-ylamino)-1H-pyrazol-1-yl)-N-methylacetamide], for which the 50% inhibitory concentration (IC50) in test [1] was 1000 to 10000 nM; in test [2], 1000 to 10000 nM; in test [3] it was more than 10000 nM; in test [4], 1000 to 10000 nM.

As to `CN(C)CC(=O)N1CC[C@H](CNc2nc(Nc3cnn(C)c3)ncc2Cl)C1` [Example 59, (R)-1-(3-((5-chloro-2-(1-methyl-1H-pyrazol-4-ylamino)pyrimidin-4-ylamino)methyl)pyrrolidin-1-yl)-2-(dimethylamino)ethanone], the IC50 was in the range of 1000 to 10000 nM in test [1], 100 to 1000 nM in test [2], 1000 to 10000 nM in test [3] and 100 to 1000 nM in test [4]. The “Selectivity ratio over JAK2, JAK1” value in test [2] is “JAK1 = 33”.

Consider `CC(=O)N1CC[C@H](CNc2nc(Nc3cnn(C)c3)ncc2Cl)C1` [Example 20, (R)-1-(3-(((5-chloro-2-((1-methyl-1H-pyrazol-4-yl)amino)pyrimidin-4-yl)amino)methyl)pyrrolidin-1-yl)ethanone], for which the IC50 lay in the range of 1000 to 10000 nM in test [1], 100 to 1000 nM in test [2], 1000 to 10000 nM in test [3] and 100 to 1000 nM in test [4]. For the same compound, the “Selectivity ratio over JAK2, JAK1” value in test [2] is “JAK1 = 42”.

Take `C=CC(=O)N1CCCC[C@@H]1CNc1nc(Nc2cnn(C)c2)ncc1Cl` [Example 41, (R)-1-(2-(((5-chloro-2-((1-methyl-1H-pyrazol-4-yl)amino)pyrimidin-4-yl)amino)methyl)piperidin-1-yl)prop-2-en-1-one]: the IC50 in test [1], in test [2], in test [3] and in test [4] was 100 to 1000 nM in each case. Moreover, in test [4], the “Selectivity ratio over JAK2, Tyk2” value was “Tyk2 = 6”.

In the case of `Cc1cnc(Nc2cnn(C)c2)nc1NC[C@H]1CCN(C(=O)CCC#N)C1` [Example 111, (R)-4-(3-(((5-methyl-2-((1-methyl-1H-pyrazol-4-yl)amino)pyrimidin-4-yl)amino)methyl)pyrrolidin-1-yl)-4-oxobutanenitrile], the IC50 is 1000 to 10000 nM in test [1], less than 100 nM in test [2], 1000 to 10000 nM in test [3] and less than 100 nM in test [4]. The “Selectivity ratio over JAK2, JAK1” value in test [2] is “JAK1 = 55”.
